{"source": "the OligoGym collection", "note": "These antisense oligonucleotides have a phosphorothioate backbone; sugars and methylation of C are not fully specified. Further: test concentration or dose not given here."}
{"biological_target": "SMAD2", "conditions": "ASO"}
{"sequence": "TTAGTGTTTTCTGGAATG", "remaining target (mRNA or protein) (fraction of control)": 0.48}
{"sequence": "AATGCTATGACAGAAGAG", "remaining target (mRNA or protein) (fraction of control)": 0.76}
{"sequence": "TCTCTGATAGTGGTAAGG", "remaining target (mRNA or protein) (fraction of control)": 0.49}
{"sequence": "ACAGATTCCACAAGGTGC", "remaining target (mRNA or protein) (fraction of control)": 0.22}
{"sequence": "AAAGCCATCTACAGTGAG", "remaining target (mRNA or protein) (fraction of control)": 0.34}
{"sequence": "TAAACCTAAGCAGAACCT", "remaining target (mRNA or protein) (fraction of control)": 0.37}
{"sequence": "TAACATTGGAGAGTAAAC", "remaining target (mRNA or protein) (fraction of control)": 0.54}
{"sequence": "GAGACCTGGTTTGTTCAG", "remaining target (mRNA or protein) (fraction of control)": 0.46}
{"sequence": "TATTACAGTTTTGAGTGG", "remaining target (mRNA or protein) (fraction of control)": 0.52}
{"sequence": "TTCCTGCCCATTCTGCTC", "remaining target (mRNA or protein) (fraction of control)": 0.08}
{"sequence": "TCACTGCTTTCTCACACC", "remaining target (mRNA or protein) (fraction of control)": 0.08}
{"sequence": "AAACTTCCCCACCTATGT", "remaining target (mRNA or protein) (fraction of control)": 0.18}
{"sequence": "GAGGTGGCGTTTCTGGAA", "remaining target (mRNA or protein) (fraction of control)": 0.29}
{"sequence": "TTCGATGGGATACCTGGA", "remaining target (mRNA or protein) (fraction of control)": 0.99}
{"sequence": "GATAGTAAACAGTCCATA", "remaining target (mRNA or protein) (fraction of control)": 0.5}
{"sequence": "CTGAGCCAGAAGAGCAGC", "remaining target (mRNA or protein) (fraction of control)": 0.18}
{"sequence": "GTTTCTCCAACCCTCTGA", "remaining target (mRNA or protein) (fraction of control)": 0.2}
{"sequence": "TGTTGGTCACTTGTTTCT", "remaining target (mRNA or protein) (fraction of control)": 0.58}
{"sequence": "CCTTCTTGTCATTTCTAC", "remaining target (mRNA or protein) (fraction of control)": 0.57}
{"sequence": "AGCTGCTTCTCCGCCGCC", "remaining target (mRNA or protein) (fraction of control)": 0.27}
{"sequence": "CTCTCCTCCGCCTGCTCC", "remaining target (mRNA or protein) (fraction of control)": 0.01}
{"sequence": "GGAAAGAGTAGTAGGAGA", "remaining target (mRNA or protein) (fraction of control)": 0.48}
{"sequence": "GGTAACACATTTAGTATT", "remaining target (mRNA or protein) (fraction of control)": 0.48}
{"sequence": "GAGTGGTGATGGCTTTCT", "remaining target (mRNA or protein) (fraction of control)": 0.4}
{"sequence": "GCGGAAGTTCTGTTAGGA", "remaining target (mRNA or protein) (fraction of control)": 0.43}
{"sequence": "ACTGTAGAGGTCCATTCA", "remaining target (mRNA or protein) (fraction of control)": 0.42}
{"sequence": "CAGGTTCTGAGTAAGTAA", "remaining target (mRNA or protein) (fraction of control)": 0.54}
{"sequence": "CTTCACCAGACTTTTCAC", "remaining target (mRNA or protein) (fraction of control)": 0.15}
{"sequence": "GGCAAAACTGGTGTCTCA", "remaining target (mRNA or protein) (fraction of control)": 0.26}
{"sequence": "AGATTACAGCCTGGTGGA", "remaining target (mRNA or protein) (fraction of control)": 0.57}
{"sequence": "AAGTGCTTGGTATGGTAA", "remaining target (mRNA or protein) (fraction of control)": 0.43}
{"sequence": "GAGAGCCTGTGTCCATAC", "remaining target (mRNA or protein) (fraction of control)": 0.29}
{"sequence": "CTAATCGTCCTGTTTTCT", "remaining target (mRNA or protein) (fraction of control)": 0.33}
{"sequence": "CACCCTTTCACAAAACTC", "remaining target (mRNA or protein) (fraction of control)": 0.15}
{"sequence": "AAACAGCCTCTTGTATCG", "remaining target (mRNA or protein) (fraction of control)": 0.29}
{"sequence": "TGCTCCTCCAGACCCACC", "remaining target (mRNA or protein) (fraction of control)": 0.01}
{"sequence": "CTTCCATCCCAGCAGTCT", "remaining target (mRNA or protein) (fraction of control)": 0.1}
{"sequence": "CTCACACCACTTTTCTTC", "remaining target (mRNA or protein) (fraction of control)": 0.1}
{"sequence": "CGTGAATGGCAAGATGGA", "remaining target (mRNA or protein) (fraction of control)": 0.47}
{"sequence": "CTCTTCACAACTGGCGGC", "remaining target (mRNA or protein) (fraction of control)": 0.16}
{"biological_target": "MAP2K6", "conditions": "ASO"}
{"sequence": "AATTTTAAGGCCAGGGTTTC", "remaining target (mRNA or protein) (fraction of control)": "≥ 1"}
{"sequence": "GCCAGGGCTGGCAGCTAAAA", "remaining target (mRNA or protein) (fraction of control)": 0.8}
{"sequence": "CTTCACCCCGAAACCCACCA", "remaining target (mRNA or protein) (fraction of control)": 0.34}
{"sequence": "GACTGAGACATTTTCCCCTT", "remaining target (mRNA or protein) (fraction of control)": 0.88}
{"sequence": "ATCTGTTCCTTTGGATTCAT", "remaining target (mRNA or protein) (fraction of control)": 0.73}
{"sequence": "GCCATAAAAGGTGACAGTGA", "remaining target (mRNA or protein) (fraction of control)": 0.86}
{"sequence": "ACACATGGCAGGAGGGACAA", "remaining target (mRNA or protein) (fraction of control)": 0.78}
{"sequence": "AAGAGAGGATTCAGGGAAGC", "remaining target (mRNA or protein) (fraction of control)": "≥ 1"}
{"sequence": "CAGTTCATTCTATACTATAG", "remaining target (mRNA or protein) (fraction of control)": 0.7}
{"sequence": "GACATTTTCCCCTTTCCTTT", "remaining target (mRNA or protein) (fraction of control)": 0.85}
{"sequence": "CATTTTCCCCTTTCCTTTGA", "remaining target (mRNA or protein) (fraction of control)": "≥ 1"}
{"sequence": "CATTAGAAGGCTTGACGTCT", "remaining target (mRNA or protein) (fraction of control)": 0.67}
{"sequence": "TGCCTTTCGACTGAGACATT", "remaining target (mRNA or protein) (fraction of control)": 0.67}
{"sequence": "CTGAGACATTTTCCCCTTTC", "remaining target (mRNA or protein) (fraction of control)": 0.91}
{"sequence": "CAAGTGTCAGAAGAACCAAA", "remaining target (mRNA or protein) (fraction of control)": 0.7}
{"sequence": "GAGACATTTTCCCCTTTCCT", "remaining target (mRNA or protein) (fraction of control)": 0.66}
{"sequence": "GGTGGGCCGAACCAGAAGCC", "remaining target (mRNA or protein) (fraction of control)": "≥ 1"}
{"sequence": "GCTCCAGGTCATCTGCCTTC", "remaining target (mRNA or protein) (fraction of control)": 0.65}
{"sequence": "CGCTGCTGAAGAAAGATGCG", "remaining target (mRNA or protein) (fraction of control)": 0.85}
{"sequence": "GGAAATCGAAGGATGGCCAA", "remaining target (mRNA or protein) (fraction of control)": "≥ 1"}
{"sequence": "GAATTTATCTAGTGATGTAT", "remaining target (mRNA or protein) (fraction of control)": "≥ 1"}
{"sequence": "GTTTCTCTTGACCGATGCAG", "remaining target (mRNA or protein) (fraction of control)": 0.55}
{"sequence": "TTTCGACTGAGACATTTTCC", "remaining target (mRNA or protein) (fraction of control)": "≥ 1"}
{"sequence": "TTAGTCTCCAAGAATCAGTT", "remaining target (mRNA or protein) (fraction of control)": 0.96}
{"sequence": "TATGTAGGCCGTTCTTTGGA", "remaining target (mRNA or protein) (fraction of control)": 0.95}
{"sequence": "CGAGAAAGAACTTTTGCTGT", "remaining target (mRNA or protein) (fraction of control)": "≥ 1"}
{"sequence": "TTTTCCCCTTTCCTTTGATG", "remaining target (mRNA or protein) (fraction of control)": "≥ 1"}
{"sequence": "CTACAAATCTACTTATAATT", "remaining target (mRNA or protein) (fraction of control)": 0.99}
